{
  "source": "patent US20130204033A1",
  "about": "“ANTIPROLIFERATIVE COMPOUNDS, CONJUGATES THEREOF, METHODS THEREFOR, AND USES THEREOF” (Medarex, Inc., priority 2009, published 2013)",
  "type_in_all_cases": "cell-based, human",
  "key": {"HCT-15": {"tested_on": "HCT-15", "assay": "3H thymidine proliferation assay, HCT-15", "settings": "Homo sapiens, HCT-15, read-out: EC50, HCT-15, 3H thymidine method, 72 h incubation", "summary_of_the_method": "(§1)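 Tumour cells were plated at 1.0×10^4 per well and, after 3 h, treated with threefold serial dilutions of compound or conjugate. Total incubation was 72 h, with a 1.0 μCi ^3H-thymidine pulse over the last 24 h. Counts gave the 50% inhibition concentration (EC50).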"}, "Hep3B": {"tested_on": "Hep3B", "assay": "3H thymidine proliferation assay, Hep3B", "settings": "Homo sapiens, Hep3B, read-out: EC50, Hep3B, 3H thymidine method, 72 h incubation", "summary_of_the_method": "as §1"}, "LNCaP": {"tested_on": "LNCaP", "assay": "3H thymidine proliferation assay, LNCaP", "settings": "Homo sapiens, LNCaP, read-out: EC50, LNCaP, 3H thymidine method, 72 h incubation", "summary_of_the_method": "as §1"}, "MDA-MB-231 [1]": {"tested_on": "MDA-MB-231", "assay": "3H thymidine proliferation assay, MDA-MB-231", "settings": "Homo sapiens, MDA-MB-231, read-out: EC50, MDA-MB-231, 3H thymidine method, 72 h incubation", "summary_of_the_method": "as §1"}, "A2058 [2]": {"tested_on": "A2058", "assay": "3H thymidine proliferation assay, A2058", "settings": "Homo sapiens, A2058; 3H thymidine method, 72 h incubation", "summary_of_the_method": "as §1"}, "HPAC": {"tested_on": "HPAC", "assay": "3H thymidine proliferation assay, HPAC", "settings": "Homo sapiens, HPAC, read-out: EC50, HPAC, 3H thymidine method, 72 h incubation", "summary_of_the_method": "as §1"}, "UO-31": {"tested_on": "UO-31", "assay": "3H thymidine proliferation assay, UO-31", "settings": "Homo sapiens, UO-31, read-out: EC50, UO-31, 3H thymidine method, 72 h incubation", "summary_of_the_method": "as §1"}, "SK-BR3": {"tested_on": "SK-BR3", "assay": "3H thymidine proliferation assay, SK-BR3", "settings": "Homo sapiens, SK-BR-3; 3H thymidine method, 72 h incubation", "summary_of_the_method": "as §1"}, "OVCAR8": {"tested_on": "OVCAR8", "assay": "3H thymidine proliferation assay, OVCAR8", "settings": "Homo sapiens, OVCAR-8, read-out: EC50, OVCAR8, 3H thymidine method, 72 h incubation", "summary_of_the_method": "as §1"}, "CEM-C1": {"tested_on": "CEM-C1", "assay": "3H thymidine proliferation assay, CEM-C1", "settings": "Homo sapiens, CEM/C1, read-out: EC50, CEM-C1, 3H thymidine method, 72 h incubation", "summary_of_the_method": "as §1"}, "MDA-MB-231 [3]": {"tested_on": "MDA-MB-231", "assay": "ATP luminescence proliferation assay, MDA-MB-231", "settings": "Homo sapiens, MDA-MB-231, 48 h, read-out: EC50 MDA-MB-231 (48 h), ATP luminescence, MDA-MB-231, 48 h incubation", "summary_of_the_method": "(§2)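 Antiproliferative EC50 values derive from luminescent ATP measurement in human tumor cells exposed for 48, 72 or 96 h to 1:3 serial dilutions of free compounds or their conjugates, with 1.0×10^3 cells seeded per well 3 h beforehand.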"}, "A2058 [4]": {"tested_on": "A2058", "assay": "ATP luminescence proliferation assay, A2058", "settings": "Homo sapiens, A2058, 48 h, read-out: EC50 A2058 (48 h), ATP luminescence, A2058, 48 h incubation", "summary_of_the_method": "as §2"}, "NCI-H460": {"tested_on": "NCI-H460", "assay": "ATP luminescence proliferation assay, NCI-H460", "settings": "Homo sapiens, NCI-H460, 48 h, read-out: EC50 NCI-H460 (48 h), ATP luminescence, NCI-H460, 48 h incubation", "summary_of_the_method": "as §2"}, "PC3": {"tested_on": "PC3", "assay": "ATP luminescence proliferation assay, PC3", "settings": "Homo sapiens, PC-3, 48 h, read-out: EC50 PC3 (48 h), ATP luminescence, PC3, 48 h incubation", "summary_of_the_method": "as §2"}, "OVCAR3": {"tested_on": "OVCAR3", "assay": "ATP luminescence proliferation assay, OVCAR3", "settings": "Homo sapiens, OVCAR-3, 48 h, read-out: EC50 OVCAR3 (48 h), ATP luminescence, OVCAR3, 48 h incubation", "summary_of_the_method": "as §2"}, "HL-60": {"tested_on": "HL-60", "assay": "ATP luminescence proliferation assay, HL-60", "settings": "Homo sapiens, HL-60, 72 h, read-out: EC50 HL-60 (72 h), ATP luminescence, HL-60, 72 h incubation", "summary_of_the_method": "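Read-out: luminescent ATP cell viability after 48, 72 or 96 h incubation, as noted, with 1:3 serial dilutions of unconjugated compounds or their conjugates. Plating was 1.0×10^3 cells/well, 3 h before dosing. EC50 = concentration giving 50% inhibition of proliferation.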"}, "Raji": {"tested_on": "Raji", "assay": "ATP luminescence proliferation assay, Raji", "settings": "Homo sapiens, 72 h, read-out: EC50 Raji (72 h), ATP luminescence, Raji, 72 h incubation", "summary_of_the_method": "as §2"}, "SW-480": {"tested_on": "SW-480", "assay": "ATP luminescence proliferation assay, SW-480", "settings": "Homo sapiens, SW480, 96 h, read-out: EC50 SW480 (96 h), ATP luminescence, SW480, 96 h incubation", "summary_of_the_method": "as §2"}},
  "note": "pEC50: −log10 of the molar value.",
  "data": [
    {"smiles": "CCCC(NC(=O)c1csc([C@@H](C[C@H](C(C)C)N(C)C(=O)[C@@H](NC(=O)[C@H]2CCCCN2C)[C@@H](C)CC)OC)n1)C(=O)OC", "note": "(stereo partly drawn) [Compound 17]", "values": [
      {"measurement": "pEC50", "setting": "HCT-15", "result": 6.41},
      {"measurement": "pEC50", "setting": "Hep3B", "result": "< 7.00"},
      {"measurement": "pEC50", "setting": "LNCaP", "result": "< 7.00"},
      {"measurement": "pEC50", "setting": "MDA-MB-231 [1]", "result": 7.08},
      {"measurement": "pEC50", "setting": "A2058 [2]", "result": "< 7.00"},
      {"measurement": "pEC50", "setting": "HPAC", "result": "< 7.00"},
      {"measurement": "pEC50", "setting": "UO-31", "result": "< 7.00"},
      {"measurement": "pEC50", "setting": "SK-BR3", "result": "< 7.00"},
      {"measurement": "pEC50", "setting": "OVCAR8", "result": 5.53},
      {"measurement": "pEC50", "setting": "CEM-C1", "result": 7.37},
      {"measurement": "pEC50", "setting": "MDA-MB-231 [3]", "result": 7.19},
      {"measurement": "pEC50", "setting": "A2058 [4]", "result": 7.52},
      {"measurement": "pEC50", "setting": "NCI-H460", "result": 7.16},
      {"measurement": "pEC50", "setting": "PC3", "result": "< 7.00"},
      {"measurement": "pEC50", "setting": "OVCAR3", "result": "< 7.00"},
      {"measurement": "pEC50", "setting": "HL-60", "result": 8.13},
      {"measurement": "pEC50", "setting": "Raji", "result": 7.57},
      {"measurement": "pEC50", "setting": "SW-480", "result": 7.04}
    ]}
  ]
}
